What was measured:
[1] = test system: hippocampal neurogenesis (Dentate Gyrus); assay: in vivo neurogenesis assay (BrdU+ cells in dentate gyrus); set-up: species or system mice; conditions: living mice; vehicle (DMSO) 7.3
Description: The screen was simple in concept. With help from chemists in the Department of Biochemistry at UTSWMC, we selected 1,000 druglike chemicals from the 250,000 compounds in our high throughput screening center. The compounds were selected to preserve representative chemical diversity of the entire library. They were further selected to enhance the representation of chiral molecules, and to avoid untoward chemical properties such as reactive moieties. The 1,000 molecules were randomly pooled into groups of ten, and each pool was administered directly into the left ventricle of two adult mice. Intracranial delivery was facilitated by stereotactic positioning of a canula fed directly by an Alzet mini-pump containing the mixture of ten chemicals. The drug mixture was administered over a week-long period at concentrations anticipated to deliver mid-nanomolar levels of the ten test compounds. Daily injections of the thymidine analog, bromodeoxyuridine (BrdU), were coadministered in order to monitor the formation of new hippocampal nerve cells. Following compound administration, animals were sacrificed such that brain tissue could be recovered, sectioned and stained with antibodies to BrdU. […]

[2] = target: T1, p70 (NAMPT) (Homo sapiens, UniProt P43490); assay: binding competition for photo-crosslinking of P7C3-S326 to p70 in H2122 cells; conditions: 0.3 μM P7C3-S326 plus 5 μM competitor, p70 band intensity, P7C3-S326 alone compared with plus competitor, vehicle 1.0
T1 construct: endogenous in cells; host or cells: H2122 lung cancer cells
Procedure: Cultured cells were co-exposed to P7C3-S326 (0.3 uM) and the individual P7C3 variants (5 uM), exposed to UV light, lysed, clicked to a fluorescent dye and run on SDS gels (FIG. 11).
P7C3-S326 was diluted to 0.3 μM in culture medium to treat H2122 cells. After incubation at 37° C. for 2 hours, H2122 cells were irradiated for 15 minutes under 306 nm ultraviolet light in a Stratalinker 2400 (Stratagene). Cells were then harvested by dissolving in 1% SDS lysis buffer 50 mM HEPES, pH 8.0, 2 mM MgCl2, 10 mM KCl, 1% SDS, 50 units/ml of Benzonase (Sigma), supplemented with Sigmafast protease inhibitor (Sigma).
The reaction was incubated at room temperature with constant agitation at 1,000 rpm on a thermomixer (Eppendorf) for 1 hour. Samples were then mixed with SDS sample loading buffer and loaded on an 8% SDS-PAGE gel, separated, and imaged using a Typhoon imager (filter settings: excitation 533 nm, emission 555 nm, and high sensitivity).
H2122 cells were incubated with the P7C3-S326 (0.3 μM) in the absence or presence of P7C3 analogs for 2 hours following by UV crosslinking. […] The samples were run on SDS-PAGE gels scanned using a Typhoon Imager. The p70 band intensity was analyzed and quantified by Image J, and the relative intensity in each assay was normalized to that of the DMSO control.

T1 sequence (P43490 whole entry): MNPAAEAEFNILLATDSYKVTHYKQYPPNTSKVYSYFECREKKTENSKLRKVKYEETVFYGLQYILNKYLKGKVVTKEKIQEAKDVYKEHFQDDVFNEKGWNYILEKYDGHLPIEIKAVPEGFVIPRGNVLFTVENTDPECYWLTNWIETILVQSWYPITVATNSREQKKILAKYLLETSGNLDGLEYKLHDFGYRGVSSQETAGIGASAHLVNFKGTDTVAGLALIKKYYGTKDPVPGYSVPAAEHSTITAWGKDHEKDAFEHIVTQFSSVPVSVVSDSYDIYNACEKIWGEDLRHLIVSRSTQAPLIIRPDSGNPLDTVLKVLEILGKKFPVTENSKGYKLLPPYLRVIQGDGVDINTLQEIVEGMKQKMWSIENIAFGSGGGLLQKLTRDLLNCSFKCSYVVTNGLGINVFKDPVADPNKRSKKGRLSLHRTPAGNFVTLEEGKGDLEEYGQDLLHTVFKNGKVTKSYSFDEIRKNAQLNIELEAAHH

| SMILES | Neurogenesis # BrdU+ Cells (X10E06)/mm3 Dentate Gyrus [1] | Binding competition [2] |
| --- | --- | --- |
| COc1cccc(NCC(O)Cn2c3ccc(Cl)cc3c3cc(Cl)ccc32)c1 (centres unmarked) [S15] | 7.6 (X10E06)/mm3 | 5.3 |
| CNCC(O)CN1c2ccccc2CCc2ccccc21 (centres unmarked) [S143] | 7.3 (X10E06)/mm3 | 1.3 |
| COc1cccc(NC[C@H](O)Cn2c3ccc(Br)cc3c3cc(Br)ccc32)c1 [S16] | 9.2 (X10E06)/mm3 | 3.1 |
| Cc1ccc2c(c1)c1c(n2CC(O)CNc2ccccc2)CCN(C)C1 (centres unmarked) [S46] | 9.2 (X10E06)/mm3 | 1.9 |
| Cc1ccc2c(c1)c1cc(Br)ccc1n2CC(=O)O [S240] | 14.3 (X10E06)/mm3 | 1.7 |
| OC(CN1c2ccccc2CCc2ccccc21)Cn1ccc2ccccc21 (centres unmarked) [S132] | 11.4 (X10E06)/mm3 | 1.3 |
| Cc1cc2c3cc(Br)ccc3n(CC(O)COc3ccccc3)c2cn1 (centres unmarked) [S190] | 8.4 (X10E06)/mm3 | 4.1 |
| COc1cccc(N(CC(O)Cn2c3ccc(Br)cc3c3cc(Br)ccc32)S(=O)(=O)C(F)(F)F)c1 (centres unmarked) [S244] | 11.6 (X10E06)/mm3 | 1.1 |
| OC(CN1c2ccccc2CCc2ccccc21)Cn1c2ccccc2c2ccccc21 (centres unmarked) [S133] | 10.1 (X10E06)/mm3 | 1.2 |
| Cc1ccc2[nH]c3ccc(C)cc3c2c1 [S237] | 11.8 (X10E06)/mm3 | 1.5 |
| CN(C)C(=O)Cn1c2ccc(Br)cc2c2cc(Br)ccc21 [S215] | 8.3 (X10E06)/mm3 | 3.6 |
| O=C(COc1cccc(SCC(O)Cn2c3ccc(Br)cc3c3cc(Br)ccc32)c1)NCc1ccccc1 (centres unmarked) [S98] | 6.9 (X10E06)/mm3 | 1.1 |
| COc1cccc(NCC(O)Cn2c3ccc(C#N)cc3c3cc(C#N)ccc32)c1 (centres unmarked) [S65] | 12.9 (X10E06)/mm3 | 3.3 |
| COc1cccc(N(CC(O)Cn2c3ccc(Br)cc3c3cc(Br)ccc32)C(C)=O)c1 (centres unmarked) [S9] | 11.9 (X10E06)/mm3 | 2.0 |
| Oc1cccc(SCC(O)CC2c3ccc(Br)cc3-c3cc(Br)ccc32)c1 (centres unmarked) [S91] | 8.2 (X10E06)/mm3 | 3.4 |
| O=C(O)c1cc2c(cn1)[nH]c1ccc(Br)cc12 [S206] | 14.8 (X10E06)/mm3 | 1.4 |
| CNCCCC1c2ccccc2C=Cc2ccccc21.Cl [S90, Protriptyline, reference compound] | 11.1 (X10E06)/mm3 | 1.4 |
| CNCC(F)CN1c2ccccc2CCc2ccccc21 (centres unmarked) [S152] | 13.4 (X10E06)/mm3 | 1.6 |
| O=C(Cn1c2ccc(Br)cc2c2cc(Br)ccc21)NO [S231] | 13.1 (X10E06)/mm3 | 1.7 |
| OC(CNC1CCCCC1)Cn1c2ccc(Br)cc2c2cc(Br)ccc21 (centres unmarked) [S109] | 9.4 (X10E06)/mm3 | 1.2 |
| O=S(=O)(CC(O)Cn1c2ccc(Br)cc2c2cc(Br)ccc21)c1ccc(O)cc1 (centres unmarked) [S94] | 8.5 (X10E06)/mm3 | 3.8 |
| OC(COc1ccccn1)Cn1c2ccc(Br)cc2c2cc(Br)ccc21 (centres unmarked) [S147] | 13.3 (X10E06)/mm3 | 3.4 |

| SMILES | Neurogenesis # BrdU+ Cells (X10E06)/mm3 Dentate Gyrus [1] | Binding competition [2] |
| --- | --- | --- |
| O=C(O)Cn1c2ccc(Br)cc2c2cc(C(=O)O)ccc21 [S239] | 11.4 (X10E06)/mm3 | 0.9 |
| Cc1ccc2[nH]c3ccc(Br)cc3c2c1 [S228] | 20.2 (X10E06)/mm3 | 2.0 |
| CCOC(=O)c1cc2c3cc(Br)ccc3n(CC(O)COc3ccccc3)c2cn1 (centres unmarked) [S174] | 9.3 (X10E06)/mm3 | 1.8 |
| FC(COc1ccccc1)Cn1c2ccc(Br)cc2c2cc(Br)ccc21 (centres unmarked) [S42] | 11.7 (X10E06)/mm3 | 1.7 |
| OC(CCc1ccccc1)Cn1c2ccc(Br)cc2c2cc(Br)ccc21 (centres unmarked) [S21] | 8.8 (X10E06)/mm3 | 2.3 |
| O=C(O)c1cc2c3ccccc3n(CC(O)COc3ccccc3)c2cn1 (centres unmarked) [S172] | 14.2 (X10E06)/mm3 | 1.1 |
| OCc1cc2c(cn1)[nH]c1ccc(Br)cc12 [S204] | 14.2 (X10E06)/mm3 | 2.3 |
| COc1ccc(SCC(O)Cn2c3ccc(Br)cc3c3cc(Br)ccc32)cc1 (centres unmarked) [S78] | 14.1 (X10E06)/mm3 | 2.7 |
| COc1cccc(S(=O)(=O)CC(O)Cn2c3ccc(Br)cc3c3cc(Br)ccc32)c1 (centres unmarked) [S82] | 11.8 (X10E06)/mm3 | 2.3 |
| CC(O)(COc1ccccc1)Cn1c2ccc(C#N)cc2c2cc(C#N)ccc21 (centres unmarked) [S177] | 13.9 (X10E06)/mm3 | 4.3 |
| CNCCC=C1c2ccccc2CCc2ccccc21.Cl [S89, Nortriptyline, reference compound] | 8.7 (X10E06)/mm3 | 1.3 |
| CC(=O)NCC(F)Cn1c2ccc(Br)cc2c2cc(Br)ccc21 (centres unmarked) [S218] | 9.5 (X10E06)/mm3 | 3.2 |
| OC(COc1ccccc1)Cn1c2ccc(Br)cc2c2cc(Br)cnc21 (centres unmarked) [S187] | 12.6 (X10E06)/mm3 | 2.9 |
| COc1cccc(NCC(O)Cn2c3ccc(Br)cc3c3cc(Br)ccc32)n1 (centres unmarked) [S188] | 13.1 (X10E06)/mm3 | 3.1 |
| OC(COc1ccccc1)Cn1c2c(c3cc(Br)ccc31)CN(C1CC1)CC2 (centres unmarked) [S106] | 10.9 (X10E06)/mm3 | 1.4 |
| N[C@@H](Cc1c[nH]c2ccccc12)C(=O)O [S248] | 10.1 (X10E06)/mm3 | 1.3 |
| COc1cccc(NCC(O)Cn2c3ccc(Br)cc3c3cc(N=[N+]=[N-])ccc32)c1 (centres unmarked) [S47] | 10.1 (X10E06)/mm3 | 5.5 |
| CNCCC(Oc1ccc(C(F)(F)F)cc1)c1ccccc1 (centres unmarked) [S122, Prozac, reference compound] | 10.0 (X10E06)/mm3 | 1.4 |
| OC(CNc1ccccc1)Cn1c2ccc(Br)cc2c2cc(Br)ncc21 (centres unmarked) [S30] | 14.3 (X10E06)/mm3 | 3.3 |
| NC(COc1ccccc1)Cn1c2ccc(Br)cc2c2cc(Br)ccc21 (centres unmarked) [S97] | 7.6 (X10E06)/mm3 | 2.0 |
| CCC(C)N(C)C(=O)c1cc2ccccc2c(-c2ccccc2Cl)n1 (centres unmarked) [S200, PK11195, reference compound] | 11.1 (X10E06)/mm3 | 1.3 |
